From patent US20090099133A1, “Isoquinolines Derivatives as Igf-1R Inhibitors” (priority 2005, published 2009) come the findings set out here.

≈ marks a conversion by molar mass, not a printed value. Where a name gives a salt, the structure may show the parent alone. Read-outs that look alike come from different tables or passages of the source. A value given as a limit tells only on which side of the number the result lay.

One data set addresses T1, alkaline phosphatase (Bos taurus, UniProt P19111).
T1 construct: purchased Sigma-Aldrich type VII S
Put plainly: Dephosphorylation by alkaline phosphatase in vitro. It is filed as in vitro ADME. The following applies: bovine, bovine alkaline phosphatase (type VII S, Sigma-Aldrich); phosphatase concentration of 10 units/ml, 37° C., pH 7.4; read-out: half-life time of dephosphorylation. An excerpt:
The ability of bovine alkaline phosphatase (type VII S, Sigma-Aldrich) to dephosphorylate the title compound was investigated in vitro. […] Intravenous administration of the title compound is consequently expected to result in a rapid formation of the active moiety (1R)-1-(3,4,5-trimethoxyphenyl)-2-formyl-5-hydroxy-6-methoxy-1,2,3,4-tetrahydroisoquinoline (see FIG. 1).

The nature of data set [1]: Solubility in a physiologically acceptable buffer (sodium phosphate buffer, pH 7.4). In kind it is physicochemical. As to conditions: sodium phosphate buffer at pH 7.4. An excerpt: The corresponding solubility of the parent compound is about 20 microgram.
For data set [2], the system named is phospho-AKT in DU-145 cells. The data set is described as follows: Inhibition of IGF-1 stimulated phosphorylation of AKT in DU-145 cells (immunoblotting). It is filed as cell-based. As to conditions: Homo sapiens, 0.25 h, incubated over night in serum free medium, IGF-1 (50 nM) stimulation 15 minutes. Here is the method:
(§1) DU-145 cells (prostate cancer) were incubated over night with the title compound in serum free medium. After stimulation for 15 minutes with IGF-1 (50 nM), the cells were lyzed and the lysates analysed by immunoblotting for phospho-MAPK and phospho-AKT.
Background: Immunoblotting shows a protein as a band on a membrane.

Data set [3] deals with phospho-MAPK (Erk1/2) in DU-145 cells. Put plainly: Inhibition of IGF-1 stimulated phosphorylation of MAPK in DU-145 cells (immunoblotting). It is filed as cell-based. As to conditions: Homo sapiens. Here is the method: as §1

T1 sequence (P19111 20-506 limits assumed): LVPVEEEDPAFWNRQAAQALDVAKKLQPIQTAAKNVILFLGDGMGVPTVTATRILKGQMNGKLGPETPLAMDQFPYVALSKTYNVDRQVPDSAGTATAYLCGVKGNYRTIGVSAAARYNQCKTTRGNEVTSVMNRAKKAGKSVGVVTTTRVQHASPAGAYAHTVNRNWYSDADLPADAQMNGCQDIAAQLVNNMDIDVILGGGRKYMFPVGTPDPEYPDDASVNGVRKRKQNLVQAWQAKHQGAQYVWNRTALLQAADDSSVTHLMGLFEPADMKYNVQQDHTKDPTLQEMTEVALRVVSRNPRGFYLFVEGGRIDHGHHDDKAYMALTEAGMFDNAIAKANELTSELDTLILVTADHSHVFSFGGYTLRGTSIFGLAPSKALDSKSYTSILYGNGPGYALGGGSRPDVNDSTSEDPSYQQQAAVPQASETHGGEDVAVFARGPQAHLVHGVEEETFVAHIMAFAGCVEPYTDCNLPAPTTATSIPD

In general, melting point refers to the temperature, or range, at which the solid turns liquid. For the compound `COc1cc([C@@H]2c3ccc(OC)c(OP(=O)(O)O)c3CCN2C=O)cc(OC)c1OC` (as salt: phosphate) [(1R)-1-(3,4,5-trimethoxyphenyl)-2-formyl-5-(dihydrogen phosphate)-6-methoxy-1,2,3,4-tetrahydroisoquinoline], the melting point fell in the range of 138 to 141 °C.

In general, half-life refers to the time in which the quantity being followed falls by half. In general, solubility refers to the dissolved amount per volume that the medium holds. With `COc1cc([C@@H]2c3ccc(OC)c(OP(=O)(O)O)c3CCN2C=O)cc(OC)c1OC` [(1R)-1-(3,4,5-trimethoxyphenyl)-2-formyl-5-(dihydrogen phosphate)-6-methoxy-1,2,3,4-tetrahydroisoquinoline], the half-life on alkaline phosphatase amounted to 8 min. The solubility in data set [1] (aqueous buffer, read-out: solubility) is over 50000 µg/mL.

The compound `COc1ccc2c(c1O)CCN(C=O)[C@@H]2c1cc(OC)c(OC)c(OC)c1` [(1R)-1-(3,4,5-trimethoxyphenyl)-2-formyl-5-hydroxy-6-methoxy-1,2,3,4-tetrahydroisoquinoline] gave a melting point of 190 to 192 °C. For the same compound, in data set [2], the IC50 stood at 40 nM. Further, the IC50 in data set [3] (0.25 h, incubated over night in serum free medium, IGF-1 (50 nM) stimulation 15 minutes, read-out: IC50 inhibition of phosphorylation of MAPK (Erk1/2)) was 50 nM. Also, in data set [1] (aqueous buffer, parent compound, read-out: solubility), the solubility was about 20 µg/mL (≈ 53.6 µM). In data set [1] (parent compound), the solubility result is on record as “about 20 microgram”.

Turning to `COc1cc([C@@H]2c3cc4c(cc3[C@H](O)[C@H]3COC(=O)[C@@H]23)OCO4)cc(OC)c1OC` [Picropodophyllin, reference compound], the IC50 in data set [3] (standard, read-out: IC50 inhibition of phospho-MAPK (Erk1/2)) is about 5000 nM.
